# From publication PMC5338263, “GS-5734 and its parent nucleoside analog inhibit Filo-, Pneumo-, and Paramyxoviruses” (Scientific Reports, 2017)
# Entries after “also recorded” stand apart in the source; their conditions may differ. Like-named read-outs stand apart in the source and are kept apart here.
# Columns and labels:
# RVFV Rec. ZH501-GFP = test: microbe, parasite or virus in culture; format: cell-based, Rift Valley Fever virus
# CCHF Rec. IbAr 10200 = test: organism not typed; format: cell-based, Crimean Congo Hemorrhagic Fever virus
# EBOV Rec. Makona-ZSG [1] = tested on: EBOV Rec. Makona-ZSG
# MARV Rec. Bat371-GFP [2] = tested on: MARV Rec. Bat371-GFP
# NiV Rec. M-Luc2AM [3] = tested on: NiV Rec. M-Luc2AM
# NiV M-1999 [4] = tested on: NiV M-1999
# MV Rec. rMV^EZGFP(3) [5] = tested on: MV Rec. rMV^EZGFP(3)
# [6] = tested on: reporter and wild-type filo-, pneumo-, and paramyxoviruses
# DenV = settings: cited from earlier work
# [7] = tested on: EBOV Rec. Mayinga-Gluc (Ebola virus); test: in vitro; settings: human
# [8] = tested on: EBOV Rec. Makona-ZSG (Ebola virus); test: in vitro; settings: human
# [9] = tested on: EBOV Makona (Ebola virus); test: in vitro; settings: human
# [10] = tested on: MARV Rec. Bat371-GFP (Marburg virus); test: in vitro; settings: human
# [11] = tested on: NiV Rec. M-Luc2AM (Nipah virus); test: in vitro; settings: human
# [12] = tested on: NiV Rec. M-GFP2AM (Nipah virus); test: in vitro; settings: human
# NiV M-1999 (Nipah virus) = test: in vitro; settings: human
# [13] = tested on: hPIV3 Rec. JS-GFP (parainfluenza type 3 virus); test: in vitro; settings: human
# [14] = tested on: MV Rec. rMV^EZGFP(3) (Measles virus); test: in vitro; settings: human
# [15] = tested on: MuV IA 2006 (Mumps virus); test: in vitro; settings: human
# [16] = tested on: RSV Rec. rgRSV224 (A2) (respiratory syncytial virus); test: in vitro; settings: human
# MARV Rec. Bat371-GFP [17] = test: organism not typed; settings: Huh-7
# AHFV 200300001 = test: organism not typed; settings: A549
# EBOV Rec. Mayinga-GFP = test: microbe, parasite or virus in culture; settings: Zaire ebolavirus, Huh-7
# EBOV Rec. Mayinga-Gluc = test: microbe, parasite or virus in culture; settings: Zaire ebolavirus, Huh-7
# EBOV Rec. Makona-ZSG [18] = test: microbe, parasite or virus in culture; settings: Zaire ebolavirus, Huh-7
# NiV Rec. M-Luc2AM [19] = test: microbe, parasite or virus in culture; settings: Henipavirus nipahense, HeLa
# NiV M-1999 [20] = test: microbe, parasite or virus in culture; settings: Henipavirus nipahense
# NiV B-2004 = test: microbe, parasite or virus in culture; settings: Henipavirus nipahense
# MV Rec. rMV^EZGFP(3) [21] = test: microbe, parasite or virus in culture; settings: Measles morbillivirus, HeLa
# MuV IA 2006 = test: microbe, parasite or virus in culture; settings: Mumps orthorubulavirus, HeLa
# RSV Rec. rgRSV224 (A2) = test: microbe, parasite or virus in culture; settings: human respiratory syncytial virus, HeLa
# LASV Josiah = test: microbe, parasite or virus in culture; settings: Mammarenavirus lassaense, Huh-7
# KFDV P9605 = test: microbe, parasite or virus in culture; settings: Kyasanur Forest disease virus, A549
# TBEV Hypr = test: microbe, parasite or virus in culture; settings: Tick-borne encephalitis virus, A549
# OHFV Bogoluvovska = test: microbe, parasite or virus in culture; settings: Omsk hemorrhagic fever virus, A549
# [22] = Cell viability assay (CellTiter-Glo 2.0), HeLa; settings: human, uninfected HeLa cells
# [23] = Cell viability assay (CellTiter-Glo 2.0), Huh7; settings: human, uninfected Huh7 cells
smiles,measurement,setting,value
CCC(CC)COC(=O)[C@H](C)N[P@](=O)(OC[C@H]1O[C@@](C#N)(c2ccc3c(N)ncnn23)[C@H](O)[C@@H]1O)Oc1ccccc1 [GS-5734],EC50,RVFV Rec. ZH501-GFP,minimal to no antiviral activity; also recorded: No inhibition
same,EC50,"RVFV Rec. ZH501-GFP; Rift Valley fever virus, Huh-7",> 10 µM
same,EC50,CCHF Rec. IbAr 10200,minimal to no antiviral activity; also recorded: No inhibition
same,EC50,CCHF Rec. IbAr 10200; Huh-7,> 10 µM
same,EC50,EBOV Rec. Makona-ZSG [1],0.014 µM
same,EC50,EBOV Makona,0.003 µM
same,reduction in virus yield,EBOV Makona,greater than 4
same,EC50,MARV Rec. Bat371-GFP [2],0.014 µM
same,EC50,NiV Rec. M-Luc2AM [3],0.045 µM
same,EC50,NiV Rec. M-GFP2AM,0.029 µM
same,reduction in virus yield,NiV M-1999 [4],greater than 4
same,EC50,hPIV3 Rec. JS-GFP,0.018 µM
same,EC50,MV Rec. rMV^EZGFP(3) [5],0.037 µM
same,EC50 lower than the 50% cytotoxic concentrations,[6],≥ 150 fold
same,higher antiviral potency relative to Nuc,[6],10 to 100 fold
same,inhibition of virus,"DenV; not tested in this paper, no reference given",inhibited
same,selectivity ratio,[7],476
same,selectivity ratio,[8],714
same,selectivity ratio,[9],666
same,selectivity ratio,[10],714
same,selectivity ratio,[11],184
same,selectivity ratio,[12],286
same,selectivity ratio,NiV M-1999 (Nipah virus),180
same,selectivity ratio,[13],461
same,selectivity ratio,[14],224
same,selectivity ratio,[15],10
same,selectivity ratio,[16],395
same,EC50,MARV Rec. Bat371-GFP [17],0.0139 ± 0.0003 µM
same,EC90,MARV Rec. Bat371-GFP [17],0.047 µM
same,EC50,AHFV 200300001,4.15 ± 0.48 µM
same,EC90,AHFV 200300001,17.6 µM
same,EC50,EBOV Rec. Mayinga-GFP,0.066 µM
same,EC90,EBOV Rec. Mayinga-GFP,0.203 µM
same,EC50,EBOV Rec. Mayinga-Gluc,0.0207 µM
same,EC90,EBOV Rec. Mayinga-Gluc,0.053 µM
same,EC50,EBOV Rec. Makona-ZSG [18],0.0136 ± 0.001 µM
same,EC90,EBOV Rec. Makona-ZSG [18],0.045 µM
same,EC50,NiV Rec. M-Luc2AM [19],0.0449 ± 0.0018 µM
same,EC90,NiV Rec. M-Luc2AM [19],0.126 µM
same,EC50,NiV M-1999 [20],0.047 µM
same,EC90,NiV M-1999 [20],0.083 µM
same,EC50,NiV B-2004,0.0324 ± 0.0027 µM
same,EC90,NiV B-2004,0.106 µM
same,EC50,MV Rec. rMV^EZGFP(3) [21],0.0365 ± 0.028 µM
same,EC90,MV Rec. rMV^EZGFP(3) [21],0.073 µM
same,EC50,MuV IA 2006,0.79 µM
same,EC90,MuV IA 2006,3.4 µM
same,EC50,RSV Rec. rgRSV224 (A2),0.0211 ± 0.0011 µM
same,EC90,RSV Rec. rgRSV224 (A2),0.059 µM
same,EC50,LASV Josiah,4.49 ± 0.48 µM
same,EC90,LASV Josiah,5.1 µM
same,EC90,KFDV P9605,3.4 µM
same,EC90,TBEV Hypr,3.5 µM
same,EC90,OHFV Bogoluvovska,3.9 µM
same,CC50 at 72 h,[22],8.3 µM
same,CC50 at 72 h,[23],> 10 µM
N#C[C@@]1(c2ccc3c(N)ncnn23)O[C@H](CO)[C@@H](O)[C@H]1O [Nuc],EC50,RVFV Rec. ZH501-GFP,little to no antiviral activity; also recorded: No inhibition
same,EC50,"RVFV Rec. ZH501-GFP; Rift Valley fever virus, Huh-7",> 50 µM
same,EC50,CCHF Rec. IbAr 10200,little to no antiviral activity; also recorded: No inhibition
same,EC50,CCHF Rec. IbAr 10200; Huh-7,> 50 µM
same,EC50,EBOV Rec. Makona-ZSG [1],1.3 µM
same,EC50,EBOV Makona,1 µM
same,reduction in virus yield,EBOV Makona,greater than 5
same,EC50,MARV Rec. Bat371-GFP [2],1.9 µM
same,EC50,NiV Rec. M-Luc2AM [3],1.5 µM
same,EC50,NiV Rec. M-GFP2AM,2.2 µM
same,reduction in virus yield,NiV M-1999 [4],greater than 5
same,EC50,hPIV3 Rec. JS-GFP,0.51 µM
same,EC50,MV Rec. rMV^EZGFP(3) [5],1 µM
same,EC50 lower than the 50% cytotoxic concentrations,[6],at least 16 fold
same,antiviral activity (active or not),DenV,active
same,antiviral activity (active or not),DenV; listed as GS-441524,shown to have activity
same,selectivity ratio,[7],16
same,selectivity ratio,[8],38
same,selectivity ratio,[9],50
same,selectivity ratio,[10],26
same,selectivity ratio,[11],33
same,selectivity ratio,[12],22
same,selectivity ratio,NiV M-1999 (Nipah virus),102
same,selectivity ratio,[13],98
same,selectivity ratio,[14],50
same,selectivity ratio,[15],5
same,selectivity ratio,[16],79
same,EC50,MARV Rec. Bat371-GFP [17],1.86 ± 0.13 µM
same,EC90,MARV Rec. Bat371-GFP [17],4.6 µM
same,EC50,AHFV 200300001,49.9 ± 2.06 µM
same,EC90,AHFV 200300001,> 150 µM
same,EC50,EBOV Rec. Mayinga-GFP,1.61 ± 0.12 µM
same,EC90,EBOV Rec. Mayinga-GFP,6.7 µM
same,EC50,EBOV Rec. Mayinga-Gluc,3.1 µM
same,EC90,EBOV Rec. Mayinga-Gluc,11 µM
same,EC50,EBOV Rec. Makona-ZSG [18],1.28 ± 0.14 µM
same,EC90,EBOV Rec. Makona-ZSG [18],3.3 µM
same,EC50,NiV Rec. M-Luc2AM [19],1.57 ± 0.78 µM
same,EC90,NiV Rec. M-Luc2AM [19],5.7 µM
same,EC90,NiV M-1999 [20]; HeLa,1.4 µM
same,EC50,NiV B-2004,2.46 µM
same,EC50,MV Rec. rMV^EZGFP(3) [21],0.99 ± 0.36 µM
same,EC90,MV Rec. rMV^EZGFP(3) [21],2.6 µM
same,EC50,MuV IA 2006,7 to 12 µM
same,EC90,MuV IA 2006,26.3 µM
same,EC50,RSV Rec. rgRSV224 (A2),0.63 µM
same,EC90,RSV Rec. rgRSV224 (A2),2.2 µM
same,EC50,LASV Josiah,> 50 µM
same,EC50,KFDV P9605,46.3 µM
same,EC90,KFDV P9605,> 350 µM
same,EC50,TBEV Hypr,51.2 µM
same,EC90,TBEV Hypr,> 150 µM
same,EC50,OHFV Bogoluvovska,50.6 µM
same,EC90,OHFV Bogoluvovska,> 350 µM
same,CC50 at 72 h,[22],> 50 µM
same,CC50 at 72 h,[23],> 50 µM
